Values quoted from earlier work in patent publication US10329262B2, “Quinazolinone antibiotics” (priority 2013, dated 2019).

Conditions: cited from earlier work

SMILES: CCCCCCCCCC(=O)N[C@@H](Cc1c[nH]c2ccccc12)C(=O)N[C@H](CC(N)=O)C(=O)N[C@@H](CC(=O)O)C(=O)N[C@@H]1C(=O)NCC(=O)N[C@@H](CCCN)C(=O)N[C@@H](CC(=O)O)C(=O)N[C@H](C)C(=O)N[C@@H](CC(=O)O)C(=O)NCC(=O)N[C@H](CO)C(=O)N[C@@H]([C@H](C)CC(=O)O)C(=O)N[C@@H](CC(=O)c2ccccc2N)C(=O)O[C@@H]1C [daptomycin]
- Plasma protein binding: > 91%
